Results on one molecule are retold here after patent publication US20130012709A1, “NOVEL INHIBITORS OF STEAROYL-CoA-DESATURASE-1 AND THEIR USES” (CENTRE NATIONAL DE LA RECHERCHE SCIENTIFIQUE, priority 2009, published 2013).

One assay relates to C4-2 cells. Briefly: Flow cytometry analysis of cell cycle. It counts as cell-based, human. Particulars: CaP cells (C4-2); with a decrease in the S phase. The procedure:
(§1) Cells were then rinsed in PBS, pelleted at 400 g for 5 min and maintained on ice for 20 min before resuspension in a […] propidium iodide (Sigma) solution. Cells were kept overnight at 4° C. and the percentages of cells in G1, S and G2-M phases of the cell cycle were measured with a Coulter Epics XL™ flow cytometer (Becton Dickinson) using 488-nm laser excitation. For apoptosis experiment, MEFs were treated with the tested compound at 25 μM for 24 h, then rinced in PBS, pelleted at 400 g for 5 min and stained with annexinV-FITC (Roche Diagnostics, Meylan, France) for 15 min at 4° C. The percentage of annexin positive cells was immediately analysed using 488-nm laser excitation.
Background: Flow cytometry measures light scatter and fluorescence of single cells or particles in a stream.

The test system of a further assay is LNCaP cells. The experiment in a line: Flow cytometry analysis of cell cycle. The class given is cell-based, human. Conditions: CaP cells (LNCaP); with a decrease in the S phase. The procedure:
as §1

A further assay concerns the target T1, SCD-1 (Homo sapiens, UniProt O00767).
T1 construct: endogenous in cells; host or cells: LNCaP, C4-2, PNT2 cells
T1 sequence (O00767 1-359): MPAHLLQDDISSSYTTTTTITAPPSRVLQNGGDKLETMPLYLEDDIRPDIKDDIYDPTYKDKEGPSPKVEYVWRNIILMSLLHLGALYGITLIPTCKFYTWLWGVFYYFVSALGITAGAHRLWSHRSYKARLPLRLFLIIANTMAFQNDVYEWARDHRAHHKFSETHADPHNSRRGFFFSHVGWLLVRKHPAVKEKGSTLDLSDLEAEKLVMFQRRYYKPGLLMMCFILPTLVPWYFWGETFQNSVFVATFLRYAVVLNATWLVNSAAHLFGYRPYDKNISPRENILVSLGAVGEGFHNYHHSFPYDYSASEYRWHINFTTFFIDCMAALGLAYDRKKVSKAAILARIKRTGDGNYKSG
Briefly: Determination of SCD activity, [14C] palmitic to palmitoleic acid conversion in cells. It counts as cell-based. Conditions: all three cell lines (LNCaP, C4-2, PNT2), 25 μM. The procedure:
Subconfluent LNCaP, C4-2, PNT2 of Ras SV40 MEFs cells grown in 6-wells plate were incubated with the tested inhibitor at 25 μM for 2 h in serum and fatty acid-free DMEM media supplemented 0.2% BSA. In this environment, the cells are solely dependent on endogenous fatty acid synthesis for production of storage, structural and signaling lipids. Trace amount of [^14C] palmitic acid were then added to the culture (0.5 μCi/well), and cells were incubated for 6 more hours. At the end of the incubation, total cell lipids were extracted and saponified, then released fatty acids were esterified with boron trifluoride in methanol for 90 min at 100° C. […] Air-dried plates were scanned on a Phosphorlmager and fatty acid spots on TLC were analysed with Phosphorlmager software. SCD activity was expressed as the ratio of palmitoleic on palmitic methyl ester acids and normalized to cellular DNA content.
The efficacy of the tested compound to inhibit SCD-1 activity has been evaluated by measuring the conversion of exogenous [^14C] saturated palmitic acid (16:0) to monounsaturated palmitoleic acid (16:1n-7). Moreover, the effects of inhibition of SCD-1 activity on lipid synthesis and proliferation in prostate cancer cell lines were analysed.

In the case of `COc1ccc(Br)c(C(=O)N2CCN(c3ccc(C(=O)NCCCc4ccccc4)cn3)CC2)c1` [BZ36], the cell cycle distribution result in the assay with C4-2 cells and with LNCaP cells was “accumulation of cells in the G0/G1 phase” in each case. For the same molecule, the “labelled monounsaturated palmitoleic acid vs control cells” value on SCD-1 is recorded as “marked reduction”.
